“Also recorded” adds a separate entry of the source.
Legend:
[1] = NMR stability and thiol reactivity (cysteamine, β-mercaptoethanol); assay type: physicochemical
[2] = tested on: 5XFAD mice
Method: Only 2-month-old male mice were used in the present study. Sample size was determined by Power and Precision (Biostat). The animals were randomly allocated to experimental groups. Investigators were blinded to the group allocation during the animal experiments. […] The protocol was reviewed and approved by the Emory Institutional Animal Care and Use Committee. Rabbit anti-tau N368 (1:1,000), and anti-APP585N (1:500) antibody, which specifically recognize the δ-secretase-derived tau and APP fragments respectively, were described previously. […] TUNEL in situ cell death detection kit was from Roche (Indianapolis, IN). […] All chemicals not included above were purchased from Sigma-Aldrich (St. Louis, MO). Recombinant δ-secretase was obtained from Sino Biological (Beijing, China), recombinant cathepsin-S was obtained from Athens Research and Technology (Athens, GA), recombinant caspase-3 and caspase-8 were obtained from Millipore (Billerica, MA).
The mice were trained in a round, water-filled tub (52′ diameter) in an environment rich with extra maze cues. An invisible escape platform was located in a fixed spatial location 1 cm below the water surface independent of a subject's start position on a particular trial. In this manner, subjects needed to utilize extra maze cues to determine the platform's location. At the beginning of each trial, the mouse was placed in the water maze with their paws touching the wall from 1 of 4 different starting positions (N, S, E, W). […] On reaching the invisible escape platform, subjects were left on it for an additional 5 s to allow for survey of the spatial cues in the environment to guide future navigation to the platform. After each trial, subjects were dried and kept in a dry plastic holding cage filled with paper towels to allow the subjects to dry off. The temperature of the water was monitored every hour so that mice were tested in water that was between 22 and 25 °C. Following the 5 days of task acquisition, a probe trial was presented during which the platform was removed. The percentage of time that was spent in the quadrant, which previously contained the escape platform during task acquisition, was measured over 60 s. All trials were analysed for latency, swim path length and swim speed by means of MazeScan (Clever Sys, Inc.).
After rinsed in distilled water, the sections were transferred to blocking solution (1% sodium hydroxide and 0.9% hydrogen peroxide) for 20 min. […] The sections were washed with 50% ethanol and placed in distilled water. Then the sections were covered with glass cover using mounting solution.
To detect the Aβ deposition in 5XFAD mice, the mice brains were homogenized in 8 × mass of 5 M guanidine HCl/50 mM Tris–HCl (pH 8.0), and incubated at room temperature for 3 h. Then the samples were diluted with cold reaction buffer (phosphate buffered saline with 5% BSA and 0.03% Tween 20, supplemented with protease inhibitor cocktail) and centrifuged at 16,000g for 20 min at 4 °C. The supernatant were analysed by human Aβ42 and Aβ40 ELISA kit according to the manufacturer's instructions (KHB3441 and KHB3481, Invitrogen). The Aβ42 and Aβ40 concentrations were determined by comparison with the standard curve. The concentrations of IL-1β and TNFα in the mice brain were detected using mouse IL-1β and TNFα ELISA kit from eBioscience according to the manufacture's instructions.

[3] = tested on: tau P301S mice; test: Chronic toxicity after 3 months oral gavage; assay type: in vivo, mouse
Source text: […]. […] […].

[4] = tested on: 5XFAD mice; conditions: 5 or 10 mg kg-1 oral; 1, 2, 4 h
[5] = Single-dose pharmacokinetics, IV and oral; conditions: for serum concentration: all three animals
Source text: Two months old CD-1 male mice were orally
serum was collected at indicated time points with each group of 3 mice (mean ± s.d.).

[6] = Serum and brain level after chronic oral dosing; conditions: tau P301S, mouse, in vivo, oral 10 mg kg-1d-1, 3 months, 1 hour after last dose
[7] = tested on: δ-secretase-mediated truncation of tau
Method: A half medium was changed to fresh Neurobasal/B27 every 4 days. The neurons were maintained for 13 days in vitro (DIV). Compounds were pre-incubated with primary culture neurons for 30 min. […] The neuronal lysates were prepared for δ-secretase assay.

[8] = Redox potential, horseradish peroxidase-phenol red assay (H2O2 production)
[9] = male, CD-1, mouse, in vivo, iv, 2 mg kg-1
[10] = male, CD-1, mouse, in vivo, po, 10 mg kg-1
[11] = male, CD-1, mouse, serum, iv, 2 mg/kg
[12] = male, CD-1, mouse, serum, po, 10 mg/kg

Nc1ccc(N2CCOCC2)c2nonc12 [compound 11, 7-(morpholin-4-yl)-2,1,3-benzoxadiazol-4-amine]
reaction with β-mercaptoethanol [1]: did not react; also recorded: unreactive
stability by NMR spectroscopy ([1]; presence or absence of cysteamine): stable
Aβ deposition, time and dose dependence ([2]; 2, 5 or 10 mg kg−1 d−1 for 1.5 and 3 months): attenuated Aβ deposition in a time- and dose-dependent manner
concentrations of IL-1β and TNFα ([2]; 5XFAD mice): reduced the concentrations of inflammatory cytokines IL-1β and TNFα
activity of δ-secretase in mice brain ([2]; 5XFAD, oral once daily, 3 months): significantly inhibited
concentrations of Aβ 1–40 and Aβ 1–42 in brain lysates ([2]; ELISA): significantly decreased
cleavage of APP by δ-secretase at N373 and N585 ([2]; Western blot): decreased the cleavage of APP
Morris water maze distance to platform ([2]; acquisition): decreased distance to platform
LTP deficits ([2]; mouse, in vivo): significantly reversed the LTP deficits
density of spines (Golgi stain) ([2]; mouse, in vivo): increased the density of spines
expression of C83 ([2]; mouse, in vivo): not altered
expression of C99 ([2]; mouse, in vivo): decreased
plaque deposition in hippocampus and frontal cortex (Thioflavin S) ([2]; mouse, in vivo): attenuated
probe test, time in target quadrant ([2]; mouse, in vivo): spent more time in the target quadrant
swim speed ([2]; mouse, in vivo): not affected
complete blood count, renal and liver function tests overall ([3]; 10 mg kg−1 d−1, 3 months): all parameters were comparable with the vehicle-treated mice
hematoxylin and eosin staining of major organs ([3]; 10 mg kg−1 d−1, 3 months): no major differences between vehicle-treated and drug-treated animals
systemic toxicity ([3]; 10 mg kg−1 d−1, 3 months): does not exhibit systemic toxicity
weight of major organs (heart, liver, spleen, brain, kidney) ([3]; 10 mg kg−1 d−1, 3 months): not changed
body weight ([3]; 10 mg kg−1 d−1 oral gavage, 3 months): no significant change in body weight
ALB ([3]; 10 mg kg−1 d−1 oral, 3 months): 3.57 ± 0.06 g/dL
ALP ([3]; 10 mg kg−1 d−1 oral, 3 months): 35.25 ± 28.48 U L-1
ALT ([3]; 10 mg kg−1 d−1 oral, 3 months): 64.25 ± 34.60 U L-1
BUN ([3]; 10 mg kg−1 d−1 oral, 3 months): 26.75 ± 3.30 mg/dL
Hemoglobin ([3]; 10 mg kg−1 d−1 oral, 3 months): 12.7 ± 0.94 g/dL
MCH ([3]; 10 mg kg−1 d−1 oral, 3 months): 17.53 ± 3.42 pg
MCHC ([3]; 10 mg kg−1 d−1 oral, 3 months): 40.8 ± 5.07%
Red blood cell ([3]; 10 mg kg−1 d−1 oral, 3 months): 7.38 ± 1.15 X1012 l-1
TBIL ([3]; 10 mg kg−1 d−1 oral, 3 months): 0.15 ± 0.17 mg/dL
White blood cell ([3]; 10 mg kg−1 d−1 oral, 3 months): 1.37 ± 0.08 X109 l-1
platelet ([3]; 10 mg kg−1 d−1 oral, 3 months): 491.26 ± 69.8 X109 l-1
concentrations of Aβ in plasma and brain after single dose [4]: time- and dose-dependently decreased
serum concentration ([5]; IV 2 mg kg-1, 8.00 h): BLQ
serum concentration ([5]; IV 2 mg kg-1, 24.00 h): BLQ
concentration at 0.08 h [5, 9]: 230 ng/mL
concentration at 0.5 h [5, 9]: 13.3 ng/mL
concentration at 1 h [5, 9]: 3.5 ng/mL
concentration at 2 h [5, 9]: 3.8 ng/mL
concentration at 4 h [5, 9]: 3.1 ng/mL
concentration at 0.5 h [5, 10]: 81.1 ng/mL
concentration at 1 h [5, 10]: 27.2 ng/mL
concentration at 2 h [5, 10]: 13.3 ng/mL
concentration at 4 h [5, 10]: 11.6 ng/mL
concentration at 8 h [5, 10]: 3.8 ng/mL
AUC(0-inf) [5, 11]: 61.2 ng·h/mL
AUC(0-t) [5, 11]: 61.1 ng·h/mL
Cmax [5, 11]: 230 ng/mL
MRT last [5, 11]: 18 min
Vd [5, 11]: 10.8 L/kg
clearance [5, 11]: 554 mL/min/kg
half-life [5, 11]: 13.2 min
bioavailability ([5]; male, CD-1, mouse, serum, oral, 10 mg kg-1, F (oral bioavailability), mean, oral 10 mg kg-1 vs IV 2 mg kg-1): 69%
AUC(0-inf) [5, 12]: 223 ng·h/mL
AUC(0-t) [5, 12]: 211 ng·h/mL
CL/F [5, 12]: 824 mL/min/kg
Cmax [5, 12]: 447 ng/mL
MRT last [5, 12]: 69 min
Tmax [5, 12]: 15 min
Vd/F [5, 12]: 134 L/kg
half-life [5, 12]: 139 min
serum concentration ([5]; oral 10 mg kg-1, 24.00 h): BLQ
F (oral bioavailability), mean ([5]; oral 10 mg kg-1 vs IV 2 mg kg-1): ~70%
concentration at 1 h ([6]; 10 mg kg-1d-1, Compound #11 in the serum, Sample #1): 184 ng/mL
concentration at 1 h ([6]; 10 mg kg-1d-1, Compound #11 in the serum, Sample #2): 59 ng/mL
concentration at 1 h ([6]; 10 mg kg-1d-1, Concentration in the brain, Sample #1): 206 ng/g
concentration at 1 h ([6]; 10 mg kg-1d-1, Concentration in the brain, Sample #2): 87 ng/g
OGD-induced cleavage of human tau (tau N368) [7]: inhibited by compound 11 in a dose-dependent manner
production of H2O2 (redox potential) [8]: none of them produced H2O2
